ChEMBL document CHEMBL1148896, “BI-32169, a bicyclic 19-peptide with strong glucagon receptor antagonist activity from Streptomyces sp” (J Nat Prod, 2004)
Bridge positions count the residues as written; N and C are the ends. Peptide text beside a SMILES is read from it. I, II: the chains in the order shown.

molecular target: Glucagon receptor (Homo sapiens, UniProt P47871); assay: Antagonist activity at human glucagon receptor expressed in BHK21 cells assessed as inhibition of glucagon-induced cAMP elevation by RIA; assay type: functional, cell-based, BHK-21
Sequence (P47871 whole entry): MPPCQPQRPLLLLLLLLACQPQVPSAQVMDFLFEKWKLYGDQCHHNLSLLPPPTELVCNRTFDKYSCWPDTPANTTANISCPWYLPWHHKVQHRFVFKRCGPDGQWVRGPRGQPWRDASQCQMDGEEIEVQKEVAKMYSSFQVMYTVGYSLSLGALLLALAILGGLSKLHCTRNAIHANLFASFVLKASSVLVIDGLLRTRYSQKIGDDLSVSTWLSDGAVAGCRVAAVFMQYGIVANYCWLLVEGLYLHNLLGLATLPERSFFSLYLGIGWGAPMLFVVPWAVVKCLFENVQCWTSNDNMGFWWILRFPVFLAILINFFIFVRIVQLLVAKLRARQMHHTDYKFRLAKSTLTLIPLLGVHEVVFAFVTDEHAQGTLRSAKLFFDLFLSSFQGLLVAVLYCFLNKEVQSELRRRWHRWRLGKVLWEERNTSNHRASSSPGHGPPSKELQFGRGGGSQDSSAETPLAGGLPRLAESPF

Row | Structure (SMILES) | IC50 [nM]
1 | CC[C@H](C)[C@@H]1NC(=O)[C@@H]2CC(=O)NCC(=O)N[C@@H](CC(C)C)C(=O)N3CCC[C@H]3C(=O)N[C@@H](Cc3c[nH]c4ccccc34)C(=O)NCC(=O)N[C@@H](CSSC[C@@H](C(=O)O)NC(=O)[C@H](C)NC(=O)[C@H](Cc3c[nH]c4ccccc34)NC(=O)[C@@H]3CCCN3C(=O)[C@H]([C@@H](C)O)NC(=O)[C@H](CC(N)=O)NC(=O)[C@H](Cc3c[nH]c4ccccc34)NC(=O)CNC(=O)[C@@H]3CCCN3C1=O)C(=O)N1CCC[C@H]1C(=O)N[C@@H](CO)C(=O)N2 (GLPWGCPSDIPGWNTPWAC-OH; disulfide 6-19; lactam N-9) | 440
2 | CC1CC(=O)c2c(cc3c(-c4c(O)cc(O)c5c(O)c6c(cc45)OC(C)CC6=O)c(O)cc(O)c3c2O)O1 (stereo not drawn) [CEPHALOCHROMIN] | 20000
3 | CC[C@H](C)[C@@H]1NC(=O)C[C@@H]2NC(=O)[C@H](CO)NC(=O)[C@@H]3CCCN3C(=O)[C@H](CSSC[C@@H](C(=O)OC)NC(=O)[C@H](C)NC(=O)[C@H](Cc3c[nH]c4ccccc34)NC(=O)[C@@H]3CCCN3C(=O)[C@H]([C@@H](C)O)NC(=O)[C@H](CC(N)=O)NC(=O)[C@H](Cc3c[nH]c4ccccc34)NC(=O)CNC(=O)[C@@H]3CCCN3C1=O)NC(=O)CNC(=O)[C@H](Cc1c[nH]c3ccccc13)NC(=O)[C@@H]1CCCN1C(=O)[C@H](CC(C)C)NC(=O)CNC2=O (I: IPGWNTPWAC-OMe / II: cyclo(CPSDGLPWG); disulfide I:10-II:1; amide I:N-II:4) | 320
